Data on 14 molecules can be found in patent US20240409519A1, “HYDROGENATED QUINOXALINES” (OTSUKA PHARMACEUTICAL CO., LTD., priority 2021, published 2024).

Data set [1] can be described thus: Protein binding rate test (human serum, equilibrium dialysis). The data set is classed as in vitro ADME. The settings on record: test compound 0.001 mmol/L, equilibrium dialysis 37° C. 6 hours. The procedure:
A serum sample was prepared by adding a test compound solution to a human serum (final concentration of the test compound: 0.001 mmol/L). The serum sample and Dulbecco's Phosphate-Buffered Saline (D-PBS(−)) were added to the wells separated by a dialysis membrane to start the reaction. A solution of the internal standard in methanol was prepared and used as a quenching solution.
Specifically, the dialysis membrane (cut-off molecular weight 12000-14000) was pre-conditioned by immersing it in distilled water, followed by 20% ethanol. Then, the membrane was washed with D-PBS(−) and set in an equilibrium dialysis kit. Then, 150 μL of D-PBS(−) was added to one part of each well divided by the dialysis membrane, and 150 μL of serum sample was added to the other part. After sealing all wells and incubation at 37° C. for 6 hours, 30 μL from the serum side and 90 μL from the PBS side of each well were collected and mixed with 90 μL of D-PBS(−) or 30 μL of blank serum and 480 μL of a quenching solution to quench the reaction.
(§1) The mixture was centrifuged (6130 g, 4° C., 10 minutes) and the supernatant was used as a sample for LC-MS/MS.
Peak area ratio ([peak area of test compound]/[peak area of internal standard]) was calculated for the test compound and the internal standard. By comparing the peak area ratio of the PBS side for each test compound with that of the serum side, the protein binding rate (%) of each test compound was calculated from (1-[peak area ratio of PBS side]/[peak area ratio of serum side])×100.

Data set [2] is described as follows: Metabolic stability test (human liver microsome, hepatic intrinsic clearance). It is filed as in vitro ADME. The settings on record: human liver microsomes, pH 7.4; human liver microsome 0.2 mg/mL, test compound 0.001 mmol/L, 37° C., 0, 10 and 20 minutes. The procedure: A metabolic reaction was initiated by adding and mixing a test compound solution (final concentration 0.001 mmol/L) and a NADH/NADPH solution (final concentration 1 mmol/L) to a human liver microsome solution (final concentration 100 mmol/L potassium phosphate buffer solution (pH 7.4), 5 mmol/L magnesium chloride, 0.2 mg/ml, human liver microsome). A solution of the internal standard in methanol was prepared and used as a quenching solution.
Specifically, a metabolic reaction was initiated by adding and mixing 2.5 μL of a solution of a test compound in acetonitrile to 222.5 μL of a human liver microsome solution in ice water, followed by preincubation at 37° C. for 1 minute, and then adding 25 μL of a NADH/NADPH solution thereto.
as §1
Peak area ratio ([peak area of test compound]/[peak area of internal standard]) was calculated for the test compound and the internal standard.
The residual ratio of the test compound was calculated from ([Ratio of peak areas at each reaction time]/[Ratio of peak areas at 0 minute reaction time]).
A general note: Microsomes from liver hold many membrane-bound enzymes, among them those of drug oxidation.

The target of data set [3] is T1, CYP3A4 (Homo sapiens, UniProt P08684).
T1 construct: a human liver microsome solution containing three CYP-specific substrates; from tissue; host or cells: human liver microsomes
Description: CYP inhibition test (1): inhibition rate (%) at one concentration, CYP3A4. It is filed as in vitro ADME. The settings on record: human liver microsomes, pH 7.4, probe midazolam (0.005 mmol/L); test compound 0.01 mmol/L, human liver microsome 0.1 mg/mL, substrate midazolam, 37° C. 10 minutes; read-out: inhibition rate (%) 3A4. The procedure:
(§2) A metabolic reaction was initiated by adding and mixing a test compound solution (final concentration 0.01 mmol/L) and a NADH/NADPH solution (final concentration 1 mmol/L) to a human liver microsome solution containing three CYP-specific substrates (final concentration 100 mmol/L potassium phosphate buffer solution (pH 7.4), 5 mmol/L magnesium chloride, 0.1 mg/mL human liver microsome, 0.005 mmol/L diclofenac (for CYP2C9), 0.01 mmol/L bufuralol (for […]), 0.005 mmol/L midazolam (for CYP3A4)). As an internal standard solution, a solution of each of stable isotopes of the metabolites (50 ng/mL [13C6] hydroxy diclofenac, 5 ng/mL [2H9] hydroxy bufuralol, and 5 ng/mL [13C6] hydroxy midazolam (all stable isotopes)) in methanol was prepared and used as a quenching solution.
(§3) Specifically, a metabolic reaction was initiated by adding and mixing 2 μL of a solution of a test compound in acetonitrile (or acetonitrile as a control) to 178 μL of a human liver microsome solution in ice water, followed by preincubation at 37° C. for 1 minute, and then adding 20 μL of a NADH/NADPH solution thereto. After incubation at 37° C. for 10 minutes, 50 μL of the reaction mixture was taken, and then it was added and mixed to 500 μL of a quenching solution to quech the reaction. The mixture was centrifuged (6130 g, 4° C., 10 minutes) and the supernatant was used as a sample for LC-MS/MS.
(§4) Peak area ratio ([peak area of metabolite]/[peak area of corresponding stable isotope]) was calculated for a metabolite and a stable isotope of the metabolite as measurement object. By comparing the peak area ratio of each test compound solution with that of the control, the inhibition rate (%) of each CYP species for each test compound was calculated from (1-[peak area ratio of each test compound solution]/[peak area ratio of control])×100.

Data set [4] concerns the target T2, CYP2C9 (Homo sapiens, UniProt P11712).
T2 construct: a human liver microsome solution containing three CYP-specific substrates; from tissue; host or cells: human liver microsomes
Description: CYP inhibition test (1): inhibition rate (%) at one concentration, CYP2C9. The data set is classed as in vitro ADME. The settings on record: human liver microsomes, pH 7.4, probe diclofenac (0.005 mmol/L); test compound 0.01 mmol/L, human liver microsome 0.1 mg/mL, substrate diclofenac, 37° C. 10 minutes; read-out: inhibition rate (%) 2C9. The procedure:
as §2, §3, §4

Data set [5] addresses T3, serotonin (5-HT) uptake (Rattus norvegicus, UniProt P31652).
T3 construct: used as crude synaptosomal fraction; from tissue; host or cells: rat frontal cortex, crude synaptosomal fraction
Description: Serotonin (5-HT) uptake inhibitory activity in rat brain synaptosome. It is filed as biochemical. The settings on record: rat frontal cortex synaptosome, tritium-labeled 5-HT 8 nM; read-out: IC50 (nM), serotonin (5-HT) uptake inhibition. The procedure: Male Wistar rats were decapitated, each brain was removed, and the frontal cortex was cut out. […] The homogenate was centrifuged at 1000 g at 4° C. for 10 minutes, and the supernatant was further centrifuged at 20000 g at 4° C. for 20 minutes. The pellet was suspended in an incubation buffer (20 mM Hepes buffer (pH 7.4) containing 10 mM glucose, 145 mM sodium chloride, 4.5 mM potassium chloride, 1.2 mM magnesium chloride and 1.5 mM calcium chloride) and used as crude synaptosomal fraction.
Each well of a 96-well round-bottom plate was used for the uptake reaction in a total volume of 200 μL solution containing purgurin (final concentration 10 μM) and ascorbic acid (final concentration 0.2 mg/mL). In other words, solvent, unlabeled 5-HT or step-diluted test compound was added to each well, and one-tenth of the final volume of the synaptosomal fraction was added to each well, followed by pre-incubation at 37° C. for 10 minutes, and then tritium-labeled 5-HT solution (final concentration 8 nM) was added and the uptake reaction was initiated at 37° C. After 10 minutes, the uptake reaction was terminated by suction filtration onto a 96-well glass fiber filter plate. The filters were rinsed with cold physi-ological saline solution, dried thoroughly, and micro scintillation 0 (Perkin-Elmer) was added thereto. Then, the residual radioactivity on the filters was measured.
The uptake value when only solvent was added was set as 100%, the uptake value when unlabeled 5-HT (final concentration 10 μM) was added as 0% (nonspecific uptake value), and the 50% inhibitory concentration was calculated from the concentration of the test compound and its inhibitory activity.

T2 sequence (P11712 whole entry): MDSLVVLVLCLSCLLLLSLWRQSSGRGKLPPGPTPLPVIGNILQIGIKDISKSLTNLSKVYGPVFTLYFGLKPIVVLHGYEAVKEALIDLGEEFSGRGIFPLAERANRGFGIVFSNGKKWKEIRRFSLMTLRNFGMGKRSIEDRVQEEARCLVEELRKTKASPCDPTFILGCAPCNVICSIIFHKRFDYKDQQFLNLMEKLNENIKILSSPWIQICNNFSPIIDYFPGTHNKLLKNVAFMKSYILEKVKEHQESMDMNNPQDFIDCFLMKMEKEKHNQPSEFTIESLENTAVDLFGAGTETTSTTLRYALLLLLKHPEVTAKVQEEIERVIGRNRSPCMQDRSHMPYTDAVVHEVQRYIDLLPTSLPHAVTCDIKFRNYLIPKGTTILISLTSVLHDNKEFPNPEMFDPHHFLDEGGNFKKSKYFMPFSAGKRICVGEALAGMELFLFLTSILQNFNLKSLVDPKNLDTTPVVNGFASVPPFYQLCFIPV
T1 sequence (P08684 whole entry): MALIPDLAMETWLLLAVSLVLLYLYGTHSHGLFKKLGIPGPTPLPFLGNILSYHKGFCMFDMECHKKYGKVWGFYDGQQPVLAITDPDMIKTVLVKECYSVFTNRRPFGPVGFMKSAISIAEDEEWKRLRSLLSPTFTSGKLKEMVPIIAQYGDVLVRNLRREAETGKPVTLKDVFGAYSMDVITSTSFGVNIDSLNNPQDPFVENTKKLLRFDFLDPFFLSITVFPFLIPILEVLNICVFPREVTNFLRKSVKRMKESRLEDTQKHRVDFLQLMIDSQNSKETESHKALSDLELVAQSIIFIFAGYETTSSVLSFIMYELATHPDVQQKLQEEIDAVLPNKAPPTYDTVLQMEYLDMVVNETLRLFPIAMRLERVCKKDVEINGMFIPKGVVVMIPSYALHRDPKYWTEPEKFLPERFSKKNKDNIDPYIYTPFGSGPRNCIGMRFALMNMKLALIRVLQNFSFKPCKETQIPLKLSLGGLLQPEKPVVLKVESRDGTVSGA
T3 sequence (P31652 whole entry): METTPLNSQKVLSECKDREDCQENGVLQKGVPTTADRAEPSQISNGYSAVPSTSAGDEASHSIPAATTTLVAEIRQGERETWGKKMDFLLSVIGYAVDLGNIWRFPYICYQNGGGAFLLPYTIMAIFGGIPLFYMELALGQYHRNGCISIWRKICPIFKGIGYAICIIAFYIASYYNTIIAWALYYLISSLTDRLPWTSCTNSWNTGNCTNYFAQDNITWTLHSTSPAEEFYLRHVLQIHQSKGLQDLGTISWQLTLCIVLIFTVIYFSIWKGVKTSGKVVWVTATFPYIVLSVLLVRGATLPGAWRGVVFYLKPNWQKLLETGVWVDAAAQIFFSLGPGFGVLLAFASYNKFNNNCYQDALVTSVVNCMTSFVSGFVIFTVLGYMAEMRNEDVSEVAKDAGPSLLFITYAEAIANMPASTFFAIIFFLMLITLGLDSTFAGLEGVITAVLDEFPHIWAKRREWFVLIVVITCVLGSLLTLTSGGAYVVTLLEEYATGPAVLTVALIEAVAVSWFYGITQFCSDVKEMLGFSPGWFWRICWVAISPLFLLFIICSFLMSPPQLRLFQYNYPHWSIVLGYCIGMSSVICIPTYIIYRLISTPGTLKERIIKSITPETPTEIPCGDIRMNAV

As a reminder, the fraction unbound is free concentration divided by total concentration. For orientation: microsomal CLint means the rate of metabolic loss divided by the concentration. The inhibition is the drop in the measured response relative to a control, in per cent. The IC50 is the concentration at which inhibition is half-maximal. Turning to `CC1(C)CN(c2ccc(OCCO)c(Cl)c2)[C@H]2CCCC[C@H]2N1` [Example 44, 2-(2-chloro-4-((4aR,8aS)-3,3-dimethyloctahydroquinoxalin-1(2H)-yl)phenoxy)ethan-1-ol 1/2fumarate], the fraction unbound at 6 h, 0.001 mmol/L in data set [1] is 0.566. Besides, in data set [2], the microsomal CLint at 0.001 mmol/L is < 50 µL/min/mg. The inhibition at 10 min, 0.01 mmol/L in data set [3] was -10.7%; in data set [4], -11.4%. Besides, the IC50 in data set [5] came to 15.3 nM.
For `Cc1cc(N2CC(C)(C)N[C@@H]3CCCC[C@@H]32)ccc1OC(F)(F)CO` [Example 48] the same measures were 0.413, < 50 µL/min/mg, -9.2%, -0.7% and 57.4 nM.
In the same order, the values of `CC1(C)CN(c2ccc(OCCO)c3occc23)[C@@H]2CCCC[C@@H]2N1` [Example 50] are 0.551, < 50 µL/min/mg, 2%, -7.6% and 7.7 nM.
For `CC1(C)CN(c2ccc(OCCO)c3occc23)[C@H]2CCCC[C@H]2N1` [Example 51] the same measures were 0.553, < 50 µL/min/mg, 1.1%, -8.3% and 17 nM.
`CC1(C)CN(c2ccc(OCCO)c(F)c2)[C@H]2CCCC[C@H]2N1` [Example 52] gave a fraction unbound at 6 h, 0.001 mmol/L in data set [1] of 0.73. In addition, the microsomal CLint at 0.001 mmol/L in data set [2] is < 50 µL/min/mg. Besides, the results for the inhibition at 10 min, 0.01 mmol/L in data set [3] and in data set [4] were 0.1% and 9.2%, respectively. Moreover, the IC50 in data set [5] was 55 nM.
In the case of `Cc1c(N2CC(C)(C)N[C@@H]3CCCC[C@@H]32)ccc(OC(F)(F)CO)c1F` [Example 57], in data set [1], the fraction unbound at 6 h, 0.001 mmol/L is 0.294. Also, the microsomal CLint at 0.001 mmol/L in data set [2] was 58 µL/min/mg. Moreover, the inhibition at 10 min, 0.01 mmol/L was found to be 8.6% in data set [3] and 9.3% in data set [4]. Further, in data set [5], the IC50 is 30.3 nM.
Turning to `Cc1cc(N2CC(C)(C)N[C@@H]3CCCC[C@@H]32)cc(F)c1OC(F)(F)CO` [Example 58], the fraction unbound at 6 h, 0.001 mmol/L in data set [1] was 0.358. The microsomal CLint at 0.001 mmol/L in data set [2] is < 50 µL/min/mg. The results for the inhibition at 10 min, 0.01 mmol/L in data set [3] and in data set [4] were 13.1% and 2.8%, respectively. The IC50 in data set [5] turned out to be 22.9 nM.
The molecule `CC1(C)CN(c2ccc(OC(F)(F)CO)cc2F)[C@H]2CCCC[C@H]2N1` [Example 61, 2-(4-((4aR,8aS)-3,3-dimethyloctahydroquinoxalin-1(2H)-yl)-3-fluorophenoxy)-2,2-difluoroethan-1-ol 1/2fumarate] had a fraction unbound at 6 h, 0.001 mmol/L in data set [1] of 0.337. For the same molecule, in data set [2], the microsomal CLint at 0.001 mmol/L was < 50 µL/min/mg. The inhibition at 10 min, 0.01 mmol/L in data set [3] was -2.7%; in data set [4], 6.8%. In data set [5], the IC50 stood at 9 nM.
In the same order, the values of `CC1(C)CN(c2cc(Br)c(OCCO)cc2F)[C@H]2CCCC[C@H]2N1` [Example 62] are 0.404, < 50 µL/min/mg, -1.6%, 4.6% and 8.6 nM.
In the same order, the values of `CC1(C)CN(c2ccc(OCCO)c(Br)c2F)[C@H]2CCCC[C@H]2N1` [Example 63] are 0.261, 84 µL/min/mg, 6.1%, 1.1% and 5.1 nM.
For `CC1(C)CN(c2ccc(OCCO)cc2Cl)[C@H]2CCCC[C@H]2N1` [Example 64, 2-(3-chloro-4-((4aR,8aS)-3,3-dimethyloctahydroquinoxalin-1(2H)-yl)phenoxy)ethan-1-ol 1/2fumarate] the same measures were 0.499, < 50 µL/min/mg, 3.9%, 10.2% and 8.8 nM.
Consider `Cc1c(OC(F)(F)CO)ccc(N2CC(C)(C)N[C@H]3CCCC[C@H]32)c1F` [Example 69, 2-(4-((4aS,8aR)-3,3-dimethyloctahydroquinoxalin-1(2H)-yl)-3-fluoro-2-methylphenoxy)-2,2-difluoroethan-1-ol 1/2fumarate], for which the free fraction (fraction unbound) at 6 h, 0.001 mmol/L in data set [1] is 0.211. The microsomal CLint at 0.001 mmol/L in data set [2] is < 50 µL/min/mg. The figures for the inhibition at 10 min, 0.01 mmol/L in data set [3] and in data set [4] were 19.7% and 14.8%, respectively. Further, in data set [5], the IC50 came to 5.7 nM.
For `Cc1c(OC(F)(F)CO)ccc(N2CC(C)(C)N[C@@H]3CCCC[C@@H]32)c1F` [Example 70] the same measures were 0.195, < 50 µL/min/mg, 17.6%, 15.8% and 7 nM.
In the same order, the values of `CC1(C)CN(c2cc(F)c(OC(F)(F)CO)cc2F)[C@H]2CCCC[C@H]2N1` [Example 71] are 0.285, < 50 µL/min/mg, -3.4%, 0.6% and 57 nM.
